Results taken from patent US8921320B2, “Targeted osmotic lysis of cancer cells” (Board of Supervisors of Louisiana State University and …, priority 2011, dated 2014).
“Also recorded” adds a separate entry of the source. Where two headings read alike, the source gives them in different places.

Legend:
[1] = tested on: MDA-MB-231 breast cancer cells; format: cell-based
Method: The effectiveness of TOL has been tested using an in vitro model for breast cancer. MDA-MB-231 breast cancer cells were cultured to complete confluency in 96-well plates. These breast cancer cells are known to over-express VGSCs by 1400-fold. These cells were exposed to Dulbecco's modified Eagle's medium (DMEM), or the cardiac glycoside drugs (known sodium pump inhibitors) ouabain (10 pM-100 nM; Sigma Chemical Co., St. Louis, Mo.) or digitoxin (100 pM-1 μM; Sigma) dissolved in DMEM for 30 min. After exposure to the sodium pump inhibitors, an electric current (0 V, 100 mV, or 1 V DC) was passed across the cells using an anode and a cathode placed touching the bottom of each well or an etched circuit in the bottom of the plate. The electric current was generated using a Grass Model SD9 stimulator (Grass Instruments, Quincy, Mass.) through platinum wire electrodes.
Initially we cultured MDA-MB-231 (ATCC, Manassas, Va., cat #HTB-26) breast cancer cells to complete confluency in 96-well plates. These cells over-express VGSCs by 100-fold. […] An electric current (0 V, 100 mV, or 1 V DC) was passed across the cells by means of an anode and a cathode placed touching the bottom of each well as in Example 1.

LNCaP (prostate cancer) = assay: Time to lysis of cultured cancer cells (drug + electrical stimulation); format: cell-based; details: 2 V DC, 200 pulses per second, 5 min limit
Excerpt: (§1) We also used two cardiac glycoside drugs that are currently FDA-approved for clinical use, ouabain and digoxin, for in vitro lysis of multiple lines of carcinoma. […] Cell lines were: MDA-MB-231 (breast cancer); MCF-7 (breast cancer; ATCC# HTB-22); LNCaP (prostate cancer; ATCC# CRL-1740); DU145 (prostate cancer; ATCC# HTB-81); MCA-38 (colon cancer; from Dr. Augusto Ochoa); A549 (non-small cell lung cancer; ATCC# CCL-185); and 3LL (non-small cell lung cancer; from Dr. Augusto Ochoa, Louisiana State University, New Orleans, La.). Cells were plated in 35 mm diameter culture dishes in Dulbecco's Modified Eagle's Medium (DMEM, Gibco) supplemented with 4 mM L-glutamine, 1 mM sodium pyruvate and 10 μM insulin for 18-24 hr. […] A 2 V DC current, 200 pulses per second was passed across individual cells using a Grass Model SD9 stimulator (Grass Instruments, Quincy, Mass.) through platinum wire electrodes held in place with a David Kopf Instrument micromanipulator (Tarzana, Calif.), and the time to lysis was measured. Video recordings of representative experiments were prepared digitally using a Canon Vixia HFM400 camera attached to Leica DM IL microscope, and are available upon request. […] All of the cancer cells lysed, with the time to lysis faster for the cells with the largest known expression of VGSCs.

MCA-38 (colon cancer) = assay: as above; format: cell-based; details: 2 V DC, 200 pulses per second, 5 min limit
Excerpt: as §1

[2] = tested on: 3LL (non-small cell lung cancer); assay: as above; format: cell-based; details: 2 V DC, 200 pulses per second, 5 min limit
Excerpt: as §1

[3] = tested on: MDA-MB-231 (breast cancer); assay: as above; format: cell-based; details: 2 V DC, 200 pulses per second, 5 min limit
Excerpt: as §1

DU145 (prostate cancer) = assay: as above; format: cell-based; details: 2 V DC, 200 pulses per second, 5 min limit
Excerpt: as §1

[4] = tested on: muscle, peripheral nerves, heart, and brain; format: in vivo, J/Nu mice
Method: As an in vivo model of cancer, MDA-MB-231 cells were suspended in matrigel and injected subcutaneously into the backs of 5 nude (J-NU) mice. Each mouse developed 0.75-1.2 cm tumors in 3-5 weeks. The mice were then injected subcutaneously with 10 mg/kg ouabain or saline. After 30 min, the mice were anesthetized with 4% isoflurane, and the tumors exposed through a small incision in the skin. An anode and a cathode were inserted into each tumor, and a train of 120 1 V DC pulses (10 msec, 2 Hz for 1 min) was delivered through the anode and cathode as discussed above. A total of 11 tumors were tested. Three tumors were from mice treated with ouabain and electrically stimulated (O-ES experimental). Of the rest, two were from a mouse treated with saline and not electrically stimulated (S-NS control), three were from mice treated with ouabain but not electrically stimulated (O-NS control), and three were from mice treated with saline and electrically stimulated (S-ES control). The electrical stimulation was repeated 15 and 30 min later. One day later, mice were sacrificed with an overdose of Nat pentobarbital, perfused with 4% buffered paraformaldehyde, and the tumors removed. The tumors were sectioned at 5 μm and stained with hematoxylin and eosin. […]

MDA-MB-231 tumors [5] = assay: In vivo TOL in breast cancer xenografts, tumor histology (hematoxylin and eosin); set-up: species or system nude (J-NU) mice
Method: As an in vivo model of cancer, MDA-MB-231 cells were suspended in matrigel and injected subcutaneously into the backs of 5 nude (J-NU) mice. Each mouse developed 0.75-1.2 cm tumors in 3-5 weeks. The mice were then injected subcutaneously with 10 mg/kg ouabain or saline. After 30 min, the mice were anesthetized with 4% isoflurane, and the tumors exposed through a small incision in the skin. An anode and a cathode were inserted into each tumor, and a train of 120 1 V DC pulses (10 msec, 2 Hz for 1 min) was delivered through the anode and cathode as discussed above. A total of 11 tumors were tested. Three tumors were from mice treated with ouabain and electrically stimulated (O-ES experimental). Of the rest, two were from a mouse treated with saline and not electrically stimulated (S-NS control), three were from mice treated with ouabain but not electrically stimulated (O-NS control), and three were from mice treated with saline and electrically stimulated (S-ES control). The electrical stimulation was repeated 15 and 30 min later. One day later, mice were sacrificed with an overdose of Nat pentobarbital, perfused with 4% buffered paraformaldehyde, and the tumors removed. The tumors were sectioned at 5 μm and stained with hematoxylin and eosin. […] The other two mice in the O-ES group had tumors that were not highly vascularized, and thus the ouabain could not efficiently distribute to the tumor cells.
As an in vivo model of cancer, we injected 4 million MDA-MB-231 cells, suspended in matrigel, subcutaneously into the backs of 5 nude (J-NU) mice. Each mouse developed 0.75-1.2 cm tumors in 3-5 weeks. The mice were injected subcutaneously with 10 mg/kg ouabain or saline and then after 30 min anesthetized with 4% isoflurane. The tumors of the mice were exposed through a small incision in the skin. An anode and a cathode were inserted into each tumor, and a train of 120 1 V DC pulses (10 msec, 2 pulses per second for 1 min) using the Grass SD9 stimulator was delivered through a copper anode and cathode. Some controls received no stimulation. A total of 11 tumors were tested. Three tumors were from mice treated with 10 mg/kg s.c. ouabain and electrically stimulated (O-ES experimental). […]
This experiment was repeated using 10 mice (2 per control group and 4 in the experimental group.) Four million MDA-MB-231 cells suspended in 50% matrigel were injected s.c. in J/Nu mice, and tumors allowed to grow until visibly vascularized (reddish in appearance.) Stimulation parameters were 10 V DC, 1 msec pulses @ 200 pulses per second. […] One day later, animals were sacrificed, perfused, tumors removed, and prepared for hematoxylin and eosin staining Stained sections from each of the tumors were evaluated by a trained histologist.

MDA-MB-231 tumors [6] = assay: Tumor growth following a single TOL treatment; format: in vivo, J/Nu mice; details: single treatment Day 0: ouabain 10 mg/kg + 2×1 min electrical stimulation; cross-sectional area followed three weeks; p<0.01
Method: When vascularized tumors became apparent, mice were divided into 4 treatment groups: Saline-No stimulation; Saline-Stimulation (2×1 min electrical stimulation); Ouabain (10 mg/kg)-No stimulation; and Ouabain (10 mg/kg)-Stimulation (2×1 min electrical stimulation). Only a single treatment was given for each treatment group on Day 0 of FIG. 2. Tumor cross-sectional area was then measured with calipers every-other day for three weeks. The tumor growth was expressed as a percent pre-treatment size and plotted against time.

[7] = tested on: MDA-MB-231 breast cancer cells; assay: cells; format: cell-based; details: alamar blue added after 1 hr, read 4 hr later
Method: The effect of the combination of ouabain (a sodium pump inhibitor) and veratridine (a sodium […]) on viability of cultured MDA-MB-231 and MCF-7 breast cancer cells was assessed. The former cells over-express VGSCs by more than 1000-fold, whereas the latter cells over-express VGSCs by 100-fold (24). MDA-MB-231 cells were cultured in DMEM, whereas MCF-7 cells were cultured in DMEM+10 μM insulin. After centrifugation, both cell lines were re-suspended in DMEM+10 μM insulin to assure normal functioning of Na^+, K^+-ATPase, and approximately 5000 cells were added to each well in a 96-well plate in a volume of 100 μl. After 18 hr, the media was aspirated, and the cells were treated with 100 μl DMEM+10 μM insulin (“media”) alone, media+100 nM ouabain, media+30 μM veratridine, or media+100 nM ouabain+30 μM veratridine. After 1 hr, […] alamar blue was added to each well, and cell viability determined 4 hr after this addition. All determinations were obtained in quadruplicate, and the experiment repeated three times. […] Veratridine alone reduced viability of MDL-MB-231 cells by 15% (FIG. 1) compared to media alone-treated cells. In this initial experiment, ouabain combined with veratridine produced a 30% reduction in cell viability. In MCF-7 cells, none of the treatments affected cell viability (Data not shown). […]

[8] = tested on: A549 (non-small cell lung cancer); assay: Time to lysis of cultured cancer cells (drug + electrical stimulation); format: cell-based; details: 100 nM ouabain, 2 V DC, 200 pulses per second, 5 min limit
Method: (§2) Cell lines were: MDA-MB-231 (breast cancer); MCF-7 (breast cancer; ATCC# HTB-22); LNCaP (prostate cancer; ATCC# CRL-1740); DU145 (prostate cancer; ATCC# HTB-81); MCA-38 (colon cancer; from Dr. Augusto Ochoa); A549 (non-small cell lung cancer; ATCC# CCL-185); and 3LL (non-small cell lung cancer; from Dr. Augusto Ochoa, Louisiana State University, New Orleans, La.). Cells were plated in 35 mm diameter culture dishes in Dulbecco's Modified Eagle's Medium (DMEM, Gibco) supplemented with 4 mM L-glutamine, 1 mM sodium pyruvate and 10 μM insulin for 18-24 hr. […] A 2 V DC current, 200 pulses per second was passed across individual cells using a Grass Model SD9 stimulator (Grass Instruments, Quincy, Mass.) through platinum wire electrodes held in place with a David Kopf Instrument micromanipulator (Tarzana, Calif.), and the time to lysis was measured. Video recordings of representative experiments were prepared digitally using a Canon Vixia HFM400 camera attached to Leica DM IL microscope, and are available upon request.

MCF-7 (breast cancer) = assay: as above; format: cell-based; details: 100 nM ouabain, 2 V DC, 200 pulses per second, 5 min limit
Method: as §2

Compound: C[C@H]1O[C@@H](O[C@H]2[C@@H](O)C[C@H](O[C@H]3[C@@H](O)C[C@H](O[C@H]4CC[C@@]5(C)[C@H](CC[C@@H]6[C@@H]5C[C@@H](O)[C@]5(C)[C@@H](C7=CC(=O)OC7)CC[C@]65O)C4)O[C@@H]3C)O[C@@H]2C)C[C@H](O)[C@@H]1O [digoxin]
- cancer cell death in wells [1]: every cancer cell died; also recorded: all cancer cells died
- Mean time-to-lysis ± SEM, Digoxin + Stimulation (LNCaP (prostate cancer); 1 μM digoxin): 122.9 ± 3.13 s
- Mean time-to-lysis ± SEM, Digoxin + Stimulation (MCA-38 (colon cancer); 1 μM digoxin): 122.7 ± 9.02 s
- Mean time-to-lysis ± SEM, Digoxin + Stimulation ([2]; 1 μM digoxin): 163.75 ± 8.27 s
- Mean time-to-lysis ± SEM, Digoxin + Stimulation ([3]; 1 μM digoxin 15-45 min): 68.39 ± 7.31 s
- Mean time-to-lysis ± SEM, Digoxin + Stimulation (DU145 (prostate cancer); 1 μM digoxin): 111.3 ± 9.7 s

Compound: C[C@@H]1O[C@@H](O[C@H]2C[C@@H](O)[C@]3(CO)[C@H]4[C@H](O)C[C@]5(C)[C@@H](C6=CC(=O)OC6)CC[C@]5(O)[C@@H]4CC[C@]3(O)C2)[C@H](O)[C@H](O)[C@H]1O [ouabain]
- cancer cell death in wells ([1]; ≧1 nM ouabain 30 min, then 100 mV or 1 V DC electric current, 6 of 24 wells (ouabain or digoxin)): every cancer cell died; also recorded: all cancer cells died
- lysis in healthy muscle, peripheral nerves, heart, and brain ([4]; 10 mg/kg ouabain s.c., tissues electrically stimulated after 30 min, one day later): None of these tissues showed signs of lysis
- cell death in normal muscle taken from the base of the tumor ([4]; 10 mg/kg s.c. ouabain + electrical stimulation (1 V DC), same mouse as the tumor with 80% cell death): no sign of cell death
- lysis in tumors that were not highly vascularized (MDA-MB-231 tumors [5]; 10 mg/kg s.c. ouabain + electrical stimulation (1 V DC), the other two mice of the O-ES group): no lysis was seen
- tumor cell death after treatment (MDA-MB-231 tumors [5]; 10 mg/kg s.c. ouabain + electrical stimulation (120 1 V DC pulses, repeated 15 and 30 min later), one of three O-ES tumors, one day later): 80%
- cell lysis in tumors, ouabain without electrical stimulation (O-NS control) (MDA-MB-231 tumors [5]; 10 mg/kg s.c. ouabain, no stimulation, three tumors, one day later): None of the tumors in any of the other three treatments showed any sign of cell lysis; also recorded: None of the tumors in any of the three control treatments showed any sign of cell lysis
- lysis in control tumors (incl. ouabain without stimulation) (MDA-MB-231 tumors [5]; repeat experiment, 10 mice, 2 per control group, 10 mg/kg s.c. ouabain): none of the controls showed any sign of lysis
- tumor size smaller than in the three other groups (MDA-MB-231 tumors [6]): 70%
- change in cell viability compared to media-only controls ([7]; 100 nM ouabain alone): no decrease in cell viability
- Mean time-to-lysis ± SEM, Ouabain + Stimulation (LNCaP (prostate cancer); 100 nM ouabain): 143.1 ± 5.78 s
- Mean time-to-lysis ± SEM, Ouabain + Stimulation (MCA-38 (colon cancer); 100 nM ouabain): 74.0 ± 1.0 s
- Mean time-to-lysis ± SEM, Ouabain + Stimulation ([2]; 100 nM ouabain): 115.9 ± 3.33 s
- Mean time-to-lysis ± SEM, Ouabain + Stimulation ([3]; 100 nM ouabain 15-45 min): 69.3 ± 4.82 s
- Mean time-to-lysis ± SEM, Ouabain + Stimulation (DU145 (prostate cancer); 100 nM ouabain): 81.6 ± 3.96 s
- Mean time-to-lysis ± SEM, Ouabain + Stimulation [8]: 149.9 ± 11.70 s
- Mean time-to-lysis ± SEM, Ouabain + Stimulation (MCF-7 (breast cancer)): 170.5 ± 15.35 s

Compound: COc1ccc(C(=O)O[C@H]2CC[C@@]3(C)[C@@H]4CC[C@H]5[C@]6(O)C[C@H](O)[C@@]7(O)[C@@H](CN8C[C@@H](C)CC[C@H]8[C@@]7(C)O)[C@]6(O)C[C@@]53O[C@]24O)cc1OC [veratridine]
- cytotoxicity at 30 µM ([7]; Homo sapiens, 30 μM veratridine alone, read-out: reduction in cell viability compared to media alone): 15%
